Columns and labels:
D2 receptors = D2 receptors (Homo sapiens, UniProt P14416); assay: binding / inhibitory effect at dopamine D2 receptor
5HT1A receptor = 5HT1A receptor (Homo sapiens, UniProt P08908); assay: GTP-gamma-S test (5HT1A agonism); assay type: biochemical; details: in vitro, 5HT1A agonistic properties; read-out: ED50 in GTP-gamma-S test
Text: (§1) The affinity to the 5-HT1A receptor can be determined in vitro by radioligand binding experiments according to Cossery J M et al. (Eur. J. Pharmacol. 1987; 140: 143-155). The functional agonistic properties at the 5HT1A receptor can be determined in vitro in the GTP-gamma-S test (Newman-Tancredi A et al., Eur. J. Pharmacol.1996; 307: 107-111). A standard in vivo animal model to test for the 5HT1A agonistic properties is the ultrasonic vocalization test in rats (e.g. deFry J et al., Eur. J. Pharmacol. 1993; 249: 331-339; Sanchez C, Behav. Pharmacol. 1993; 4: 269-277). The affinity for dopamine D4 receptors can be determined in vitro by radioligand binding experiments according to Klokow M et al. (Drug Res. 1986; 36: 197-200).

rats [1] = assay: ultrasonic vocalization test in rats; details: Rattus norvegicus, in vivo
Text: as §1

[2] = test system: Parkinsonian cynomolgus monkey; assay: MPTP Parkinsonian cynomolgus monkey, parkinsonian symptoms (Laval University Disability Scale); assay type: in vivo
Text: A typical animal model for idiopathic Parkinson's disease is the Parkinsonian cynomolgus monkey according to P. J. Blanchet et al., Exp. Neurology 1998; 153: 214-222. Monkeys render parkinsonian by repeated injections of 1-methyl-4-phenyl-1,2,3,6-tetrahydropyridine (MPTP). Parkinsonian symptoms are qualitatively assessed by the use of the Laval University Disability Scale (B. Gomez-Mancilla et al., 1993; Mov. Disord. 8: 144-150) measuring the following symptoms: posture, mobility, climbing, gait, holding food, vocalizing, grooming, social interaction.

[3] = test system: reserpinized rat or mouse; assay: reserpinized rat or mouse (akinesia); assay type: in vivo; details: 24 h after reserpine
Procedure: A typical animal model is the reserpinized rat or mouse (e.g. M. S. Starr and B. S. Starr, J. Neural Transm.—Park. Dis. Dement. Sect., 1994; 7: 133-142; M. Gossel et al., J. Neural Transm.—Park. Dis. Dement. Sect., 1995; 10: 27-39; N. R. Hughes et al., Mov. Disord., 1998; 13: 228-233). Reserpine is a potent depleter of monoamines and produces nearly complete akinesia in both species. Prominent 24 h after application, the distance travelled and the time active is nearly zero as measured in conventional activity meters.

rat = assay: striatonigral degeneration model in the rat (turning behavior); assay type: in vivo; details: induced by apomorphine or amphetamine
Text: Another more recent animal model is the striatonigral degeneration approach in the rat according to G. K. Wenning et al., J. Neural Transm. Suppl., 1999; 55: 103-113. Rats receive an unilateral injection of 6-hydroxydopamine into the left medial forebrain bundle followed by an injection of quinolinic acid into the ipsilateral striatum inducing nigrostriatal degeneration. The degeneration results in turning behavior to a challenge with dopaminomimetics such as apomorphine or amphetamine. Turning behavior is measured by an automated recorder.

rats [4] = assay: neuroleptics-induced muscle rigidity in rats; assay type: in vivo, rat; details: enhanced by haloperidol
Text: A typical animal model is neuroleptics-induced muscle rigidity in rats according to S. Wolfarth et al., Arch. Pharmacol. 1992; 345: 209-212. Rats are challenged with the conventional neuroleptic drug haloperidol which enhances muscle tone. Muscle tone is electromechanically measured as the resistence to passive flexion and extension of the hind limb.

[5] = test system: neuroleptics sensitized monkey; assay: neuroleptics sensitized monkey; assay type: in vivo; details: haloperidol challenge, scoring system
Text: Another typical animal model is the neuroleptics sensitized monkey according to D. E. Casey, Psychopharmacology, 1996; 124: 134-140. Monkeys treated repeatedly with conventional neuroleptics are highly sensitive to a subsequent challenge dose of neuroleptic drugs. When challenged, the monkeys immediately show extrapyramidal motor side effects such as dystonia, dyskinesias, akathisia, and bradykinesia which are rated by a scoring system. The conventional neuroleptic drug haloperidol is given as a challenge.

[6] = test system: oxotremorine-induced tremor; assay: oxotremorine-induced tremor; assay type: in vivo; details: rating scale
Procedure: A typical animal model for drug-induced tremors is the oxotremorine-induced tremor (e.g. H. Hallberg and O. Almgren, Acta Physiol. Scand., 1987; 129: 407-13; J. G. Clement and W. R. Dyck, J. Pharmacol. Meth., 1989; 22: 25-36). Oxotremorine induces tremor which is measured by a rating scale.

rats [7] = assay: posthypoxic myoclonus in rats; details: rat, in vivo
Procedure: A typical animal model for myoclonus is myoclonus induced by an acute hypoxic episode according to D. D. Truong et al., Mov. Dsiord., 1994; 9: 201-206). In this model of posthypoxic myoclonus, rats undergo a cardiac arrest for 8 minutes and are resuscitated thereafter. Myoclonic jerks occur spontaneously but can be provoked by auditory stimulation, too, worsening over the days following cardiac arrest.

Sequence of 5HT1A receptor (P08908 whole entry): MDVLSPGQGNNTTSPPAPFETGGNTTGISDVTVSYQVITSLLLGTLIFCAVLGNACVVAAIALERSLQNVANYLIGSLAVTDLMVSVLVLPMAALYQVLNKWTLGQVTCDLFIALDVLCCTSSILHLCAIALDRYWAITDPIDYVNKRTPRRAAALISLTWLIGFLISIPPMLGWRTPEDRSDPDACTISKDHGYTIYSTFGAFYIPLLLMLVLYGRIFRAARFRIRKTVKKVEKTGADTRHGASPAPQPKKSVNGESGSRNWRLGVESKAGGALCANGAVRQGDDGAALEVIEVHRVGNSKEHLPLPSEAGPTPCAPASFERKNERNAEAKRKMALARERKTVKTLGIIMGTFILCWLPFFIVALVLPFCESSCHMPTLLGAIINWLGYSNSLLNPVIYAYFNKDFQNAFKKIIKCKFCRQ
Sequence of D2 receptors (P14416 whole entry): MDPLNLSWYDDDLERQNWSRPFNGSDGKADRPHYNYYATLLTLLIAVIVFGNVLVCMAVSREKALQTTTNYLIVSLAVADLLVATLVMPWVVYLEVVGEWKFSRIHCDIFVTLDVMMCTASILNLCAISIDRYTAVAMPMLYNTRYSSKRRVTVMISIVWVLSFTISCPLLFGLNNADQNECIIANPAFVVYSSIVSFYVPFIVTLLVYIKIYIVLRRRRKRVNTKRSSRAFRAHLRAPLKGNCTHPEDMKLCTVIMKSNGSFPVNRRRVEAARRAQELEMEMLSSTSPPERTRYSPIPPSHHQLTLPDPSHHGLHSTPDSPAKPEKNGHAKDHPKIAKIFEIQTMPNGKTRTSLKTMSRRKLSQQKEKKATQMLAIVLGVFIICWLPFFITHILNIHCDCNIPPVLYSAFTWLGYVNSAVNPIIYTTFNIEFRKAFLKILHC

Q: How did the “binding to D2 receptors” value (D2 receptors) turn out when `O[C@@H]1C[C@H](CNCc2cncc(-c3ccc(F)cc3)c2)Oc2ccccc21` [(2R,4R)-2-({[5-(4-fluorophenyl)-pyridin-3ylmethyl]-amino}-methyl)-chroman-4-ol] was run?
A: The value was “no or only a very weak binding”.

Q: And the EC50 (5HT1A receptor)?
A: Its EC50 is 33 nM.

Q: What about the ED50 (rats [1]) of the same compound?
A: Its ED50 is 2 mg/kg.

Q: What about the parkinsonian symptoms ([2]; Laval University Disability Scale) of the same compound?
A: The parkinsonian symptoms was “reduce all the parkinsonian symptoms”.

Q: And the total activity ([2]; cynomolgus monkey, in vivo)?
A: The total activity was “increased total activity”.

Q: And the “akinesia (distance travelled and time active)” value [3]?
A: The value was “dose-dependently reduce akinesia”.

Q: And the turning behavior (rat)?
A: The turning behavior was “dose-dependently antagonized”.

Q: What about the muscle tone (rats [4]) of the same compound?
A: The muscle tone was “decrease the muscle tone enhanced by haloperidol”.

Q: What about the “extrapyramidal motor side effects” value [5] of the same compound?
A: Its value is “dose-dependently reduce the extrapyramidal motor side effects”.

Q: What about the oxotremorine-induced tremors [6] of the same compound?
A: Its oxotremorine-induced tremors is “inhibit oxotremorine-induced tremors”.

Q: And the “number of spontaneous and auditory-evoked myoclonic jerks” value (rats [7])?
A: The value was “dose-dependently reduce the number of spontaneous and autitory-evoked myoclonic jerks”.
